According to article PMC13288134 (Structure (London, England : 1993), 2025):

Key:
[1] = target: TvVip2 (Trichoderma virens, UniProt G9N0G3, F40H); assay: X-ray crystal structure, […] Å; assay type: binding; settings: active site, anaerobic
[2] = target: T1, TvVip1 (Trichoderma virens, UniProt G9MQB8); assay: competition: loss of deu-5'-dA formation from […] deuterated NTP, LC-MS; assay type: biochemical
[3] = target: T2, TvVip2 (Trichoderma virens, UniProt G9N0G3); assay: X-ray crystal structure, […] Å; assay type: binding; settings: active site, anaerobic
T2 sequence (G9N0G3 32-328): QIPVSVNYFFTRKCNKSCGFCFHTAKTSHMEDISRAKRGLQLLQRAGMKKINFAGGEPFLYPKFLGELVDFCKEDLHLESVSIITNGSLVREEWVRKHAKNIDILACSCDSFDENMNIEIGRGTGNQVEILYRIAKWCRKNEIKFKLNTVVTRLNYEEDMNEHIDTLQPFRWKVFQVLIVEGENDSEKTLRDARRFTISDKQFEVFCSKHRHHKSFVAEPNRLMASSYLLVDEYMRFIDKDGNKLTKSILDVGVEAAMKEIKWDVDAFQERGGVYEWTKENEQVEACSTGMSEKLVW

[4] = target: T1, TvVip1; assay: competition: deu-5'-dA formation by LC-MS, Cheng-Prusoff from IC50 and Km; assay type: biochemical; settings: calculated from average IC50 and Km; competitive assumption; 1 mM deuUTP, 1 mM SAM, 10 μM enzyme, dithionite, HEPES pH 7.5
[5] = target: T3, TvVip1 CTP-swap V2 (Trichoderma virens, UniProt Z9USF9BXN2); assay: as above; assay type: biochemical; settings: calculated from average IC50 and Km; competitive assumption; 1 mM deuUTP, 1 mM SAM, 10 μM enzyme, dithionite, HEPES pH 7.5
T3 sequence (Z9USF9BXN2 24-317): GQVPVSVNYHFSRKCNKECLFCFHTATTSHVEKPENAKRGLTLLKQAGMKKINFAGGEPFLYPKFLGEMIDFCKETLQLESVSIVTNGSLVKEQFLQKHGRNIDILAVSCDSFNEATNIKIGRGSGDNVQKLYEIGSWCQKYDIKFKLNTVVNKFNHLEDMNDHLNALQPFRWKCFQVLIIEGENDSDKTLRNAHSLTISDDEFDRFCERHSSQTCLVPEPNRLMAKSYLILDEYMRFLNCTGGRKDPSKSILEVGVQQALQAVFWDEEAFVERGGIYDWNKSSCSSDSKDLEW

[6] = target: T3, TvVip1 CTP-swap V2; assay: as above; assay type: biochemical; settings: calculated from average IC50 and Km; competitive assumption; 1 mM deuCTP, 1 mM SAM, 10 μM enzyme, dithionite, HEPES pH 7.5

Row | IC50 [2] | Ki (CTP) [4] | Ki (CTP) [5] | Ki (UTP) [6] | Structure (SMILES) | X-ray crystal structure, 2.3 Å ([1]; with SAM and [4Fe-4S]) | X-ray crystal structure, 1.5 Å ([3]; with SAM and [4Fe-4S]) | X-ray crystal structure, 2.3 Å ([1]; with CTP and [4Fe-4S]) | X-ray crystal structure, 1.5 Å ([3]; with CTP and [4Fe-4S])
1 | > 4900 µM | > 360 µM | 0.22 µM |  | Nc1ccn([C@@H]2O[C@H](COP(=O)(O)OP(=O)(O)OP(=O)(O)O)[C@@H](O)[C@H]2O)c(=O)n1 [CTP] | TvVip2 F40H (PDB: 9DFU) in the presence of CTP and SAM | contain strong electron density representing the radical SAM [4Fe-4S] cluster, SAM, and CTP |  | 
2 |  |  |  |  | C[S+](CC[C@H](N)C(=O)O)C[C@H]1O[C@@H](n2cnc3c(N)ncnc32)[C@H](O)[C@@H]1O (stereo partly drawn) [SAM] |  |  | TvVip2 F40H (PDB: 9DFU) in the presence of CTP and SAM | contain strong electron density representing the radical SAM [4Fe-4S] cluster, SAM, and CTP
3 | 19 ± 5.7 µM |  |  | > 59 µM | O=c1ccn([C@@H]2O[C@H](COP(=O)(O)OP(=O)(O)OP(=O)(O)O)[C@@H](O)[C@H]2O)c(=O)[nH]1 [UTP] |  |  |  | 
